Calls of active or inactive are those of the source. No rule for the calls is given here.
Tested on: CCRIS mutagenicity, Ames/micronucleus/aberration tests
Test: CCRIS mutagenicity studies

Nc1ccccc1
mutagenic call (Test System: AMES SALMONELLA TYPHIMURIUM, Strain/Indicator: TA1535, Metabolic Activation: RAT, LIVER, S-9, Method: STANDARD PLATE): inactive; negative
mutagenic call (Test System: AMES SALMONELLA TYPHIMURIUM, Strain/Indicator: TA1537, Metabolic Activation: HAMSTER, LIVER, S-9, AROCLOR 1254, Method: STANDARD PLATE): inactive; negative
mutagenic call (Test System: AMES SALMONELLA TYPHIMURIUM, Strain/Indicator: TA1537, Metabolic Activation: HAMSTER, LIVER, S-9, Method: STANDARD PLATE): inactive; negative
mutagenic call (Test System: AMES SALMONELLA TYPHIMURIUM, Strain/Indicator: TA1537, Metabolic Activation: MOUSE, LIVER, S-9, AROCLOR 1254, Method: STANDARD PLATE): inactive; negative
mutagenic call (Test System: AMES SALMONELLA TYPHIMURIUM, Strain/Indicator: TA1537, Metabolic Activation: MOUSE, LIVER, S-9, Method: STANDARD PLATE): inactive; negative
mutagenic call (Test System: AMES SALMONELLA TYPHIMURIUM, Strain/Indicator: TA1537, Metabolic Activation: NONE, Method: STANDARD PLATE): inactive; negative
mutagenic call (Test System: AMES SALMONELLA TYPHIMURIUM, Strain/Indicator: TA1537, Metabolic Activation: RAT, LIVER, S-9, AROCLOR 1254, Method: STANDARD PLATE): inactive; negative
mutagenic call (Test System: AMES SALMONELLA TYPHIMURIUM, Strain/Indicator: TA1537, Metabolic Activation: RAT, LIVER, S-9, PYRAZOLE, Method: PREINCUBATION): inactive; negative
mutagenic call (Test System: AMES SALMONELLA TYPHIMURIUM, Strain/Indicator: TA1537, Metabolic Activation: RAT, LIVER, S-9, Method: STANDARD PLATE): inactive; negative
mutagenic call (Test System: AMES SALMONELLA TYPHIMURIUM, Strain/Indicator: TA1538, Metabolic Activation: HAMSTER, LIVER, S-9, AROCLOR 1254, Method: STANDARD PLATE): inactive; negative
mutagenic call (Test System: AMES SALMONELLA TYPHIMURIUM, Strain/Indicator: TA1538, Metabolic Activation: HAMSTER, LIVER, S-9, Method: STANDARD PLATE): inactive; negative
mutagenic call (Test System: AMES SALMONELLA TYPHIMURIUM, Strain/Indicator: TA1538, Metabolic Activation: HAMSTER, SPLEEN, S-9, AROCLOR 1254, Method: STANDARD PLATE): inactive; negative
mutagenic call (Test System: AMES SALMONELLA TYPHIMURIUM, Strain/Indicator: TA1538, Metabolic Activation: MOUSE, LIVER, S-9, AROCLOR 1254, Method: STANDARD PLATE): inactive; negative
mutagenic call (Test System: AMES SALMONELLA TYPHIMURIUM, Strain/Indicator: TA1538, Metabolic Activation: MOUSE, LIVER, S-9, Method: STANDARD PLATE): inactive; negative
mutagenic call (Test System: AMES SALMONELLA TYPHIMURIUM, Strain/Indicator: TA1538, Metabolic Activation: NONE, Method: STANDARD PLATE): inactive; negative
mutagenic call (Test System: AMES SALMONELLA TYPHIMURIUM, Strain/Indicator: TA1538, Metabolic Activation: RAT, LIVER, S-9, AROCLOR 1254, Method: PREINCUBATION): inactive; negative
mutagenic call (Test System: AMES SALMONELLA TYPHIMURIUM, Strain/Indicator: TA1538, Metabolic Activation: RAT, LIVER, S-9, AROCLOR 1254, Method: STANDARD PLATE): inactive; negative
mutagenic call (Test System: AMES SALMONELLA TYPHIMURIUM, Strain/Indicator: TA1538, Metabolic Activation: RAT, LIVER, S-9, Method: STANDARD PLATE): inactive; negative
mutagenic call (Test System: AMES SALMONELLA TYPHIMURIUM, Strain/Indicator: TA1538, Metabolic Activation: RAT, SPLEEN, S-9, AROCLOR 1254, Method: STANDARD PLATE): inactive; negative
mutagenic call (Test System: CHINESE HAMSTER V-79, Strain/Indicator: V-79/6-THIOGUANINE, Metabolic Activation: NONE, Method: SUSPENSION/PLATE): inactive; negative
mutagenic call (Test System: CHINESE HAMSTER V-79, Strain/Indicator: V-79/6-THIOGUANINE, Metabolic Activation: RAT, LIVER, HEPATOCYTES, Method: SUSPENSION/PLATE): inactive; negative
mutagenic call (Test System: CHINESE HAMSTER V-79, Strain/Indicator: V-79/6-THIOGUANINE, Metabolic Activation: RAT, LIVER, S-9, PHENOBARBITAL AND BETA-NAPHTHOFLAVONE, Method: SUSPENSION/PLATE): active; positive
mutagenic call (Test System: CHINESE HAMSTER V-79, Strain/Indicator: V-79/8-AZAGUANINE, Metabolic Activation: NONE, Method: SUSPENSION/PLATE): active; positive
mutagenic call (Test System: CHINESE HAMSTER V-79, Strain/Indicator: V-79/8-AZAGUANINE, Metabolic Activation: S-9, Method: SUSPENSION/PLATE): active; positive
mutagenic call (Test System: CHINESE HAMSTER V-79, Strain/Indicator: V-79/OUABAIN, Metabolic Activation: NONE, Method: SUSPENSION/PLATE): inactive; negative
mutagenic call (Test System: CHINESE HAMSTER V-79, Strain/Indicator: V-79/OUABAIN, Metabolic Activation: S-9, Method: SUSPENSION/PLATE): inactive; negative
mutagenic call (Test System: E. COLI, Strain/Indicator: WP2 UVRA, Metabolic Activation: HAMSTER, LIVER, S-9, AROCLOR 1254, Method: PREINCUBATION): inactive; negative
mutagenic call (Test System: E. COLI, Strain/Indicator: WP2 UVRA, Metabolic Activation: HAMSTER, LIVER, S-9, AROCLOR 1254, Method: STANDARD PLATE): inactive; negative
mutagenic call (Test System: E. COLI, Strain/Indicator: WP2 UVRA, Metabolic Activation: HAMSTER, LIVER, S-9, Method: PREINCUBATION): inactive; negative
mutagenic call (Test System: E. COLI, Strain/Indicator: WP2 UVRA, Metabolic Activation: HAMSTER, LIVER, S-9, Method: STANDARD PLATE): inactive; negative
mutagenic call (Test System: E. COLI, Strain/Indicator: WP2 UVRA, Metabolic Activation: MOUSE, LIVER, S-9, AROCLOR 1254, Method: PREINCUBATION): inactive; negative
mutagenic call (Test System: E. COLI, Strain/Indicator: WP2 UVRA, Metabolic Activation: MOUSE, LIVER, S-9, AROCLOR 1254, Method: STANDARD PLATE): inactive; negative
mutagenic call (Test System: E. COLI, Strain/Indicator: WP2 UVRA, Metabolic Activation: MOUSE, LIVER, S-9, Method: PREINCUBATION): inactive; negative
mutagenic call (Test System: E. COLI, Strain/Indicator: WP2 UVRA, Metabolic Activation: MOUSE, LIVER, S-9, Method: STANDARD PLATE): inactive; negative
mutagenic call (Test System: E. COLI, Strain/Indicator: WP2 UVRA, Metabolic Activation: NONE, Method: FLUCTUATION TEST): inactive; negative
mutagenic call (Test System: E. COLI, Strain/Indicator: WP2 UVRA, Metabolic Activation: NONE, Method: PREINCUBATION): inactive; negative
mutagenic call (Test System: E. COLI, Strain/Indicator: WP2 UVRA, Metabolic Activation: NONE, Method: STANDARD PLATE): inactive; negative
mutagenic call (Test System: E. COLI, Strain/Indicator: WP2 UVRA, Metabolic Activation: RAT, LIVER, S-9, AROCLOR 1254, Method: PREINCUBATION): inactive; negative
mutagenic call (Test System: E. COLI, Strain/Indicator: WP2 UVRA, Metabolic Activation: RAT, LIVER, S-9, AROCLOR 1254, Method: STANDARD PLATE): inactive; negative
mutagenic call (Test System: E. COLI, Strain/Indicator: WP2 UVRA, Metabolic Activation: RAT, LIVER, S-9, Method: PREINCUBATION): inactive; negative
mutagenic call (Test System: E. COLI, Strain/Indicator: WP2 UVRA, Metabolic Activation: RAT, LIVER, S-9, Method: STANDARD PLATE): inactive; negative
mutagenic call (Test System: MOUSE LYMPHOMA, Strain/Indicator: L5178Y (TK+/TK-), Metabolic Activation: NONE, Method: SUSPENSION/PLATE): active; positive
mutagenic call (Test System: MOUSE LYMPHOMA, Strain/Indicator: L5178Y (TK+/TK-), Metabolic Activation: RAT, LIVER, S-9, AROCLOR 1254, Method: SUSPENSION/PLATE): active; positive
mutagenic call (Test System: UDS RAT HEPATOCYTES, Strain/Indicator: BROMODEOXYURIDINE INCORP, Metabolic Activation: NONE, Method: FLOW CYTOMETRIC ANALYSIS): inactive; negative
mutagenic call (Test System: UDS RAT HEPATOCYTES, Strain/Indicator: THY INCORP, Metabolic Activation: NONE, Method: AUTORADIOGRAPHY): inactive; negative
mutagenic call (Test System: UDS RODENT HEPATOCYTES, Strain/Indicator: THY INCORP (NON-S-PHASE), Metabolic Activation: NONE, Method: AUTORADIOGRAPHY): inactive; negative
